# Data: US9695155B2, “Herbicidal substituted pyrimidinyloxy benzene compounds” (E. I. DU PONT DE NEMOURS AND COMPANY, priority 2013, dated 2017)
# Assays:
# bluegrass = assay: Test D postemergence; format: in vivo, Poa annua; conditions: Postemergence, scale 0 to 100 (0 no effect, 100 complete control)
# Text: (§1) Seeds of plant species selected from bluegrass (annual bluegrass, Poa annua), blackgrass (Alopecurus myosuroides), canarygrass (littleseed canarygrass, Phalaris minor), chickweed (common chickweed, Stellaria media), galium (catchweed bedstraw, Galium aparine), bromegrass, downy (downy bromegrass, Bromus tectorum), field poppy (Papaver rhoeas), field violet (Viola arvensis), green foxtail (Setaria viridis), deadnettle (henbit deadnettle, Lamium amplexicaule), Italian ryegrass (Lolium multiflorum), kochia (Kochia scoparia), lambsquarters (Chenopodium album), oilseed rape (Brassica napus), pigweed (Amaranthus retroflexus), chamomile (scentless chamomile, Matricaria inodora), Russian thistle (Salsola kali), speedwell (bird's-eye speedwell, Veronica persica), spring barley (Hordeum vulgare), spring wheat (Triticum aestivum), wild buckwheat (Polygonum convolvulus), wild mustard (Sinapis arvensis), wild oat (Avena fatua), wild radish (Raphanus raphanistrum), windgrass (Apera spica-venti), winter barley (Hordeum vulgare), and winter wheat (Triticum aestivum) were planted into a silt loam soil and treated preemergence with test chemicals formulated in a non-phytotoxic solvent mixture which included a surfactant.
# (§2) At the same time, these species were planted in pots containing Redi-Earth® planting medium (Scotts Company, 14111 Scottslawn Road, Marysville, Ohio 43041) comprising spaghnum peat moss, vermiculite, wetting agent and starter nutrients and treated with postemergence applications of the test chemicals formulated in the same manner. Plants ranged in height from 2 to 18 cm (1- to 4-leaf stage). Treated plants and controls were maintained in a controlled growth environment for 7 to 21 days after which time all species were compared to controls and visually evaluated. Plant response ratings, summarized in Table D, are based on a scale of 0 to 100 where 0 is no effect and 100 is complete control. A dash (-) response means no test result.
# canarygrass = assay: Test D postemergence; format: in vivo, Phalaris minor
# Procedure, shortened: (§3)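 Seeds sown in silt loam soil got preemergence sprays; plants in peat/vermiculite potting medium were sprayed postemergence at 2–18 cm (1- to 4-leaf stage). Chemicals were formulated in a non-phytotoxic solvent mixture with surfactant. After 7 to 21 days in a controlled environment, injury was rated visually versus controls, 0 (no effect) to 100 (complete control).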
# speedwell = assay: Test D postemergence; format: in vivo, Veronica persica
# Text: as §1, §2
# wild radish = assay: Test D postemergence; format: in vivo, Raphanus raphanistrum
# Text: as §1, §2
# bromegrass, downy = assay: Test D postemergence; format: in vivo, Bromus tectorum; conditions: Postemergence, scale 0 to 100 (0 no effect, 100 complete control)
# Procedure, shortened: as §3
# wild buckwheat [1] = assay: Test D postemergence; format: in vivo, Polygonum convolvulus; conditions: Postemergence, scale 0 to 100 (0 no effect, 100 complete control)
# Text: as §1, §2
# winter barley = assay: Test D postemergence; format: in vivo, Hordeum vulgare; conditions: Postemergence, scale 0 to 100 (0 no effect, 100 complete control)
# Text: as §1, §2
# spring barley = assay: Test D postemergence; format: in vivo, Hordeum vulgare; conditions: Postemergence, scale 0 to 100 (0 no effect, 100 complete control)
# Text: as §1, §2
# wild buckwheat [2] = assay: Test D preemergence; format: in vivo, Polygonum convolvulus
# Text: as §1, §2
# [3] = 62 g ai/ha, scale 0 to 100 (0 no effect, 100 complete control)
# [4] = 125 g ai/ha, scale 0 to 100 (0 no effect, 100 complete control)
# [5] = 250 g ai/ha, scale 0 to 100 (0 no effect, 100 complete control)
structure (smiles),measurement,setting,value
"Fc1cccc(Oc2ncc(Cl)cn2)c1-n1cc(Br)cn1 [Compound 178, 2-[2-(4-bromo-1H-pyrazol-1-yl)-3-fluorophenoxy]-5-chloropyrimidine]",pest or weed control at 16 g/ha,"bluegrass; Poa annua, post-emergence, 16 g ai/ha, read-out: Plant response rating, Bluegrass",20%
same,pest or weed control at 31 g/ha,"bluegrass; Poa annua, post-emergence, 31 g ai/ha, read-out: Plant response rating, Bluegrass",30%
same,pest or weed control at 62 g/ha,"bluegrass; Poa annua, post-emergence, 62 g ai/ha, read-out: Plant response rating, Bluegrass",35%
same,pest or weed control at 125 g/ha,"bluegrass; Poa annua, post-emergence, 125 g ai/ha, read-out: Plant response rating, Bluegrass",55%
same,pest or weed control at 16 g/ha,"canarygrass; Phalaris minor, post-emergence, 16 g ai/ha, scale 0-100, read-out: Plant response rating, Canarygrass",5%
same,pest or weed control at 31 g/ha,"canarygrass; Phalaris minor, post-emergence, 31 g ai/ha, scale 0 to 100 (0 no effect, 100 complete control), read-out: Plant response rating, Canarygrass",15%
same,pest or weed control at 62 g/ha,"canarygrass; Phalaris minor, post-emergence, 62 g ai/ha, scale 0 to 100 (0 no effect, 100 complete control), read-out: Plant response rating, Canarygrass",20%
same,pest or weed control at 125 g/ha,"canarygrass; Phalaris minor, post-emergence, 125 g ai/ha, scale 0 to 100 (0 no effect, 100 complete control), read-out: Plant response rating, Canarygrass",35%
same,pest or weed control at 16 g/ha,"speedwell; Veronica persica, post-emergence, 16 g ai/ha, scale 0-100, read-out: Plant response rating, Speedwell",70%
same,pest or weed control at 31 g/ha,"speedwell; Veronica persica, post-emergence, 31 g ai/ha, scale 0 to 100 (0 no effect, 100 complete control), read-out: Plant response rating, Speedwell",80%
same,pest or weed control at 62 g/ha,"speedwell; Veronica persica, post-emergence, 62 g ai/ha, scale 0 to 100 (0 no effect, 100 complete control), read-out: Plant response rating, Speedwell",100%
same,pest or weed control at 125 g/ha,"speedwell; Veronica persica, post-emergence, 125 g ai/ha, scale 0 to 100 (0 no effect, 100 complete control), read-out: Plant response rating, Speedwell",100%
same,pest or weed control at 16 g/ha,"wild radish; Raphanus raphanistrum, post-emergence, 16 g ai/ha, scale 0-100, read-out: Plant response rating, Radish, Wild",60%
same,pest or weed control at 31 g/ha,"wild radish; Raphanus raphanistrum, post-emergence, 31 g ai/ha, scale 0 to 100 (0 no effect, 100 complete control), read-out: Plant response rating, Radish, Wild",65%
same,pest or weed control at 62 g/ha,"wild radish; Raphanus raphanistrum, post-emergence, 62 g ai/ha, scale 0 to 100 (0 no effect, 100 complete control), read-out: Plant response rating, Radish, Wild",70%
same,pest or weed control at 125 g/ha,"wild radish; Raphanus raphanistrum, post-emergence, 125 g ai/ha, scale 0 to 100 (0 no effect, 100 complete control), read-out: Plant response rating, Radish, Wild",80%
same,pest or weed control at 16 g/ha,"bromegrass, downy; Bromus tectorum, post-emergence, 16 g ai/ha, read-out: Plant response rating, Bromegrass, Downy",5%
same,pest or weed control at 31 g/ha,"bromegrass, downy; Bromus tectorum, post-emergence, 31 g ai/ha, read-out: Plant response rating, Bromegrass, Downy",5%
same,pest or weed control at 62 g/ha,"bromegrass, downy; Bromus tectorum, post-emergence, 62 g ai/ha, read-out: Plant response rating, Bromegrass, Downy",10%
same,pest or weed control at 125 g/ha,"bromegrass, downy; Bromus tectorum, post-emergence, 125 g ai/ha, read-out: Plant response rating, Bromegrass, Downy",20%
same,pest or weed control at 16 g/ha,"wild buckwheat [1]; Fallopia convolvulus, post-emergence, 16 g ai/ha, read-out: Plant response rating, Buckwheat, Wild",65%
same,pest or weed control at 31 g/ha,"wild buckwheat [1]; Fallopia convolvulus, post-emergence, 31 g ai/ha, read-out: Plant response rating, Buckwheat, Wild",75%
same,pest or weed control at 62 g/ha,"wild buckwheat [1]; Fallopia convolvulus, post-emergence, 62 g ai/ha, read-out: Plant response rating, Buckwheat, Wild",75%
same,pest or weed control at 125 g/ha,"wild buckwheat [1]; Fallopia convolvulus, post-emergence, 125 g ai/ha, read-out: Plant response rating, Buckwheat, Wild",85%
same,plant injury at 16 g/ha,"winter barley; Hordeum vulgare, post-emergence, 16 g ai/ha, read-out: Plant response rating, Barley, Winter",0%
same,plant injury at 31 g/ha,"winter barley; Hordeum vulgare, post-emergence, 31 g ai/ha, read-out: Plant response rating, Barley, Winter",0%
same,plant injury at 62 g/ha,"winter barley; Hordeum vulgare, post-emergence, 62 g ai/ha, read-out: Plant response rating, Barley, Winter",5%
same,plant injury at 125 g/ha,"winter barley; Hordeum vulgare, post-emergence, 125 g ai/ha, read-out: Plant response rating, Barley, Winter",10%
same,plant injury at 16 g/ha,"spring barley; Hordeum vulgare, post-emergence, 16 g ai/ha, read-out: Plant response rating, Barley, Spring",0%
same,plant injury at 31 g/ha,"spring barley; Hordeum vulgare, post-emergence, 31 g ai/ha, read-out: Plant response rating, Barley, Spring",5%
same,plant injury at 62 g/ha,"spring barley; Hordeum vulgare, post-emergence, 62 g ai/ha, read-out: Plant response rating, Barley, Spring",5%
same,plant injury at 125 g/ha,"spring barley; Hordeum vulgare, post-emergence, 125 g ai/ha, read-out: Plant response rating, Barley, Spring",10%
same,pest or weed control at 16 g/ha,"wild buckwheat [2]; Fallopia convolvulus, pre-emergence, 16 g ai/ha, scale 0 (no effect) to 100 (complete control), read-out: Plant response rating, Buckwheat, Wild",15%
same,pest or weed control at 31 g/ha,"wild buckwheat [2]; Fallopia convolvulus, pre-emergence, 31 g ai/ha, scale 0-100, read-out: Plant response rating, Buckwheat, Wild",55%
same,pest or weed control at 62 g/ha,"wild buckwheat [2]; Fallopia convolvulus, pre-emergence, 62 g ai/ha, scale 0-100, read-out: Plant response rating, Buckwheat, Wild",100%
same,pest or weed control at 125 g/ha,"wild buckwheat [2]; Fallopia convolvulus, pre-emergence, 125 g ai/ha, scale 0-100, read-out: Plant response rating, Buckwheat, Wild",100%
N#Cc1cccc(Oc2ncc(Cl)cn2)c1-n1cc(-n2ccc(C(F)(F)F)n2)cn1 [Compound 284],"Plant response rating, Bluegrass",bluegrass; 62 g ai/ha,35
same,"Plant response rating, Bluegrass",bluegrass; 31 g ai/ha,25
same,"Plant response rating, Bluegrass",bluegrass; 125 g ai/ha,40
same,"Plant response rating, Bluegrass",bluegrass; 250 g ai/ha,45
same,"Plant response rating, Canarygrass","canarygrass; 31 g ai/ha, scale 0-100",20
same,"Plant response rating, Canarygrass",canarygrass; [3],20
same,"Plant response rating, Canarygrass",canarygrass; [4],25
same,"Plant response rating, Canarygrass",canarygrass; [5],25
same,"Plant response rating, Speedwell","speedwell; 31 g ai/ha, scale 0-100",70
same,"Plant response rating, Speedwell",speedwell; [3],75
same,"Plant response rating, Speedwell",speedwell; [4],100
same,"Plant response rating, Speedwell",speedwell; [5],100
same,"Plant response rating, Radish, Wild","wild radish; 31 g ai/ha, scale 0-100",75
same,"Plant response rating, Radish, Wild",wild radish; [3],100
same,"Plant response rating, Radish, Wild",wild radish; [4],100
same,"Plant response rating, Radish, Wild",wild radish; [5],100
same,"Plant response rating, Bromegrass, Downy","bromegrass, downy; 62 g ai/ha",40
same,"Plant response rating, Bromegrass, Downy","bromegrass, downy; 31 g ai/ha",30
same,"Plant response rating, Bromegrass, Downy","bromegrass, downy; 125 g ai/ha",45
same,"Plant response rating, Bromegrass, Downy","bromegrass, downy; 250 g ai/ha",45
same,"Plant response rating, Buckwheat, Wild",wild buckwheat [1]; 62 g ai/ha,100
same,"Plant response rating, Buckwheat, Wild",wild buckwheat [1]; 31 g ai/ha,100
same,"Plant response rating, Buckwheat, Wild",wild buckwheat [1]; 125 g ai/ha,100
same,"Plant response rating, Buckwheat, Wild",wild buckwheat [1]; 250 g ai/ha,100
same,"Plant response rating, Barley, Winter",winter barley; 62 g ai/ha,15
same,"Plant response rating, Barley, Winter",winter barley; 31 g ai/ha,15
same,"Plant response rating, Barley, Winter",winter barley; 125 g ai/ha,20
same,"Plant response rating, Barley, Winter",winter barley; 250 g ai/ha,25
same,"Plant response rating, Barley, Spring",spring barley; 62 g ai/ha,15
same,"Plant response rating, Barley, Spring",spring barley; 31 g ai/ha,5
same,"Plant response rating, Barley, Spring",spring barley; 125 g ai/ha,20
same,"Plant response rating, Barley, Spring",spring barley; 250 g ai/ha,25
same,"Plant response rating, Buckwheat, Wild","wild buckwheat [2]; 31 g ai/ha, scale 0 (no effect) to 100 (complete control)",10
same,"Plant response rating, Buckwheat, Wild","wild buckwheat [2]; 62 g ai/ha, scale 0-100",20
same,"Plant response rating, Buckwheat, Wild","wild buckwheat [2]; 125 g ai/ha, scale 0-100",70
same,"Plant response rating, Buckwheat, Wild","wild buckwheat [2]; 250 g ai/ha, scale 0-100",100
